From US5026832A, “9-dihydro-9-O-alkyldesmycosin derivatives” (Toyo Jozo Co., Ltd., priority 1988, dated 1991)
In brackets after ≈: the same amount, converted by molar mass.

Key:
[1] = tested on: Staphylococcus aureus MS 353 C36; assay: Antimicrobial activity (minimum inhibitory concentration); type: cell-based; conditions: MS353C36; Staphylococcus aureus MS 353 C36, about 10^6 /ml
Method: (§1) Minimum inhibitory concentrations (MIC, μg/ml) of various compounds of formula (I) against various microorganisms (about 10^6 /ml) were measured.

[2] = tested on: Staphylococcus aureus MS 353; assay: as above; type: cell-based; conditions: MS353; Staphylococcus aureus MS 353, about 10^6 /ml
Method: as §1

[3] = tested on: Staphylococcus aureus FDA 209P JC-1; assay: as above; type: cell-based; conditions: FDA209P; Staphylococcus aureus FDA 209P JC-1, about 10^6 /ml
Method: as §1

[4] = tested on: Staphylococcus pyogenes N.Y.5; assay: as above; type: cell-based; conditions: Staphylococcus pyogenes N.Y.5, about 10^6 /ml
Method: as §1

[5] = tested on: Staphylococcus epidermidis sp-al-1; assay: as above; type: cell-based; conditions: SPAL1; Staphylococcus epidermidis sp-al-1, about 10^6 /ml
Method: as §1

[6] = tested on: Staphylococcus pyogenes S-23; assay: as above; type: cell-based; conditions: Staphylococcus aureus, S23; Staphylococcus pyogenes S-23, about 10^6 /ml
Method: as §1

[7] = tested on: Staphylococcus pyogenes 1022; assay: as above; type: cell-based; conditions: Staphylococcus pyogenes 1022, about 10^6 /ml
Method: as §1

[8] = tested on: Staphylococcus aureus Smith; assay: as above; type: cell-based; conditions: about 10^6 /ml
Method: as §1

[9] = tested on: Staphylococcus pyogenes S-23; assay: Infectious disease curing effect by oral administration in infected mice; type: in vivo, ICR male mice; conditions: Staphylococcus aureus, S23, po, 120 h
Method: A pre-incubated test microorganism, Staphylococcus pyogenes S-23, was suspended in a 5% mucin solution and inoculated into the ICR male mice (8 mice per group) abdomen in an amount of 2×10^2. After 1 hour, Compounds (I) of the present invention dissolved or suspended in a phosphate buffer were orally administered to the mice. The mice were inspected for 5 days to determine ED50 (mg/kg) by the Van der Waerden method.

SMILES | MIC [1] | MIC [2] | MIC [3] | MIC [4] | MIC [5] | MIC [6] | MIC [7] | MIC [8] | ED50 [9]
CCOC1C=CC(C)=CC(COC2OC(C)C(O)C(OC)C2OC)C(CC)OC(=O)CC(OC(=O)CC)C(C)C(OC2OC(C)C(O)C(N(C)C)C2O)C(CC=O)CC1C (stereo not drawn) [Compound 10, 9-dihydro-9-O-ethyl-3-O-propionyldesmycosin] | 0.39 µg/mL (≈ 0.455 µM) | 0.39 µg/mL (≈ 0.455 µM) | 0.2 µg/mL (≈ 0.233 µM) | 0.1 µg/mL (≈ 0.117 µM) | 0.78 µg/mL (≈ 0.909 µM) | 0.39 µg/mL (≈ 0.455 µM) | > 100 µg/mL | 0.78 µg/mL (≈ 0.909 µM) | 
CCCOC1C=CC(C)=CC(COC2OC(C)C(O)C(OC)C2OC)C(CC)OC(=O)CC(OC(=O)CC)C(C)C(OC2OC(C)C(O)C(N(C)C)C2O)C(CC=O)CC1C (stereo not drawn) [Compound 11, 9-dihydro-9-O-propyl-3-O-propionyldesmycosin] | 0.39 µg/mL (≈ 0.447 µM) | 0.2 µg/mL (≈ 0.229 µM) | 0.2 µg/mL (≈ 0.229 µM) | 0.1 µg/mL (≈ 0.115 µM) | 0.39 µg/mL (≈ 0.447 µM) | 0.2 µg/mL (≈ 0.229 µM) | 100 µg/mL (≈ 115 µM) | 0.78 µg/mL (≈ 0.894 µM) | 
CCC1OC(=O)CC(OC(C)=O)C(C)C(OC2OC(C)C(O)C(N(C)C)C2O)C(CC=O)CC(C)C(OC)C=CC(C)=CC1COC1OC(C)C(O)C(OC)C1OC (stereo not drawn) [Compound 12, 9-dihydro-9-O-methyl-3-O-acetyldesmycosin] | 0.2 µg/mL (≈ 0.241 µM) | 0.2 µg/mL (≈ 0.241 µM) | 0.2 µg/mL (≈ 0.241 µM) | 0.1 µg/mL (≈ 0.12 µM) | 0.39 µg/mL (≈ 0.47 µM) | 0.1 µg/mL (≈ 0.12 µM) | > 100 µg/mL | 0.39 µg/mL (≈ 0.47 µM) | 
CCC1OC(=O)CC(OC(C)=O)C(C)C(OC2OC(C)CC(N(C)C)C2O)C(CC=O)CC(C)C(OC)C=CC(C)=CC1COC1OC(C)C(O)C(OC)C1OC (stereo not drawn) [Compound 13, 9-dihydro-9-O-methyl-3-O-acetyl-4'-deoxydesmycosin] | 0.2 µg/mL (≈ 0.246 µM) | 0.2 µg/mL (≈ 0.246 µM) | 0.2 µg/mL (≈ 0.246 µM) | 0.1 µg/mL (≈ 0.123 µM) | 0.39 µg/mL (≈ 0.479 µM) | 0.1 µg/mL (≈ 0.123 µM) | > 100 µg/mL | 0.39 µg/mL (≈ 0.479 µM) | 
CCC1OC(=O)CC(O)C(C)C(OC2OC(C)C(O)C(N(C)C)C2O)C(CC=O)CC(C)C(OCC2CC2)C=CC(C)=CC1COC1OC(C)C(O)C(OC)C1OC (stereo not drawn) [Compound 14, 9-dihydro-9-O-cyclopropylmethyldesmycosin] | 0.2 µg/mL (≈ 0.242 µM) | 0.2 µg/mL (≈ 0.242 µM) | 0.2 µg/mL (≈ 0.242 µM) | 0.1 µg/mL (≈ 0.121 µM) | 0.2 µg/mL (≈ 0.242 µM) | ≤ 0.05 µg/mL | > 100 µg/mL | 0.39 µg/mL (≈ 0.471 µM) | 
CCC1OC(=O)CC(O)C(C)C(OC2OC(C)C(O)C(N(C)C)C2O)C(CC=O)CC(C)C(OCC2CCC2)C=CC(C)=CC1COC1OC(C)C(O)C(OC)C1OC (stereo not drawn) [Compound 15, 9-dihydro-9-O-cyclobutylmethyldesmycosin] | 0.39 µg/mL (≈ 0.463 µM) | 0.39 µg/mL (≈ 0.463 µM) | 0.39 µg/mL (≈ 0.463 µM) | ≤ 0.05 µg/mL | 0.78 µg/mL (≈ 0.926 µM) | 0.2 µg/mL (≈ 0.238 µM) | 50 µg/mL (≈ 59.4 µM) | 0.78 µg/mL (≈ 0.926 µM) | 
CCC1OC(=O)CC(O)C(C)C(OC2OC(C)C(O)C(N(C)C)C2O)C(CC=O)CC(C)C(OCC2CCCCC2)C=CC(C)=CC1COC1OC(C)C(O)C(OC)C1OC (stereo not drawn) [Compound 16, 9-dihydro-9-O-cyclohexylmethyldesmycosin] | 0.78 µg/mL (≈ 0.896 µM) | 0.39 µg/mL (≈ 0.448 µM) | 0.78 µg/mL (≈ 0.896 µM) | 0.39 µg/mL (≈ 0.448 µM) | 1.56 µg/mL (≈ 1.79 µM) | 0.39 µg/mL (≈ 0.448 µM) | 50 µg/mL (≈ 57.5 µM) | 1.56 µg/mL (≈ 1.79 µM) | 
CCC1OC(=O)CC(O)C(C)C(OC2OC(C)C(O)C(N(C)C)C2O)C(CC=O)CC(C)C(OCC(C)C)C=CC(C)=CC1COC1OC(C)C(O)C(OC)C1OC (stereo not drawn) [Compound 17, 9-dihydro-9-O-isobutyldesmycosin] | 0.39 µg/mL (≈ 0.47 µM) | 0.39 µg/mL (≈ 0.47 µM) | 0.39 µg/mL (≈ 0.47 µM) | 0.1 µg/mL (≈ 0.12 µM) | 0.39 µg/mL (≈ 0.47 µM) | 0.2 µg/mL (≈ 0.241 µM) | > 100 µg/mL | 0.78 µg/mL (≈ 0.94 µM) | 
CCC1OC(=O)CC(O)C(C)C(OC2OC(C)C(O)C(N(C)C)C2O)C(CC=O)CC(C)C(OCc2ccccc2)C=CC(C)=CC1COC1OC(C)C(O)C(OC)C1OC (stereo not drawn) [Compound 18, 9-dihydro-9-O-benzyldesmycosin] | 0.2 µg/mL (≈ 0.231 µM) | 0.2 µg/mL (≈ 0.231 µM) | 0.2 µg/mL (≈ 0.231 µM) | 0.1 µg/mL (≈ 0.116 µM) | 0.39 µg/mL (≈ 0.451 µM) | 0.1 µg/mL (≈ 0.116 µM) | 100 µg/mL (≈ 116 µM) | 0.39 µg/mL (≈ 0.451 µM) | 
CCC1OC(=O)CC(O)C(C)C(OC2OC(C)C(O)C(N(C)C)C2O)C(CC=O)CC(C)C(=O)C=CC(C)=CC1COC1OC(C)C(O)C(OC)C1OC (stereo not drawn) [Desmycosin, 4'-demycarosyltylosin] | 0.2 µg/mL (≈ 0.259 µM) | 0.2 µg/mL (≈ 0.259 µM) | 0.2 µg/mL (≈ 0.259 µM) | ≤ 0.05 µg/mL | 0.2 µg/mL (≈ 0.259 µM) | ≤ 0.05 µg/mL | > 100 µg/mL | 0.39 µg/mL (≈ 0.505 µM) | 
CC[C@H]1OC(=O)C[C@@H](O)[C@H](C)[C@@H](O[C@@H]2O[C@H](C)[C@@H](O[C@H]3C[C@@](C)(O)[C@@H](O)[C@H](C)O3)[C@H](N(C)C)[C@H]2O)[C@@H](CC=O)C[C@@H](C)C(=O)/C=C/C(C)=C/[C@@H]1CO[C@@H]1O[C@H](C)[C@@H](O)[C@@H](OC)[C@H]1OC [Tylosin, reference compound] |  |  |  |  |  |  |  |  | > 200 mg/kg
